Laboratory results taken from US8722014B2, “1 H-[1, 2, 3] triazole substituted amino acids and uses thereof” (Washington University, priority 2009, dated 2014).

Tested on: 9L gliosarcoma cells
Assay: Cell uptake assay in 9L gliosarcoma cells with amino acid transport inhibitors (cluster tray method)
Type: cell-based
Details: for percent uptake relative to control, Na ASC: L-Ala/L-Ser/L-Cys 3.3 mM each
Description: The 9L gliosarcoma tumor is an established model for human glioblastoma (brain tumor). Cell uptake assays were performed with 9L gliosarcoma cells using both (R)-[^18F]4 and (S)-[^18F]4. 9L gliosarcoma cells were cultured with Earle's minimal essential medium (MEM) augmented with 10% newborn calf serum, 1% 200 mM L-glutamine, 1% MEM vitamin solution and 1% 10 mM non-essential amino acids (NEAA). The cells were passaged every two to three days prior to use with no more than a total of 20 passages. Two to three days before the uptake assays, suspension of 2.5 or 5.0×10^4 cells in culture media were aliquoted into Costar 24 well plates to achieve log growth phase with approximately 70% confluency at the time of the uptake assay (approximately 10^5 cells per well).
Cell uptake assays were performed using the cluster tray method reported in Gazzola et al., Anal. Biochem. 115: 368-374, 1981. Two buffers were used for the assays, a phosphate buffered saline solution and a sodium-free phosphate buffered choline chloride solution. […] The choline buffer was the same as the sodium buffer except choline chloride was substituted for sodium chloride and choline phosphate dibasic was substituted for sodium phosphate dibasic. A 250 mM solution of choline phosphate dibasic was prepared by boiling 95.6 mL of 75% of choline bicarbonate (0.500 mol) and 16.9 mL of 85% aqueous phosphoric acid (0.247 mol) in 750 mL of water for 60 min. The solution was brought to a total volume of 1 liter with water and brought to pH 7.4 with concentrated aqueous hydrochloric acid. The pH of the sodium and choline buffer solutions was adjusted to 7.4 with concentrated aqueous hydrochloric acid prior to use.
A variety of inhibitor conditions were used to determine which amino acid transport system or systems were responsible for cellular uptake of (R)- and (S)-[^18F]-4. The N-methylated amino acid, methylaminoisobutyric acid (MeAIB), is a selective system A substrate and has been used extensively as a competitive inhibitor of system A transport (Shotwell, M. A., et al. Biochem. Biophys. Acta. 737: 267-284, 1983; Christensen, H. N., et al., J. Biol. Chem. 240: 3609-3616, 1965) The bulky neutral amino acid, 2-aminobicyclo-(2,2,1)-heptane-2-carboxylic acid (BCH), has been extensively used as a competitive inhibitor of system L transport, and under sodium-free conditions BCH is a selective system L inhibitor (Palacin, M., et al., Physiol. Rev. 78: 969-1054, 1998. In the presence of sodium, BCH is also an inhibitor of system B^0,+ which is a sodium-dependent amino acid transporter that typically is a minor transport systems in most tissues. A mixture of L-alanine (L-Ala), L-serine (L-Ser) and L-cysteine (L-Cys), (ASC), was used as a non-specific inhibitor condition, and this combination of amino acids is expected to inhibit a broad range of amino acid transport systems including system ASC. Because of the results of initial cell uptake assays described below and the structural relationship of the 1H-1,2,3-triazole group to the imidazole side chain of L-histidine (L-His), additional uptake assays using L-His as well as the basic side chain amino acids L-arginine (L-Arg) and L-lysine (L-Lys) individually and together (RKH) as competitive inhibitors were performed.
The following inhibitors were added to the appropriate sodium or choline buffer: N-methyl aminoisobutyric acid (MeAIB, 10 mM), a mixture of L-alanine/L-serine/L-cysteine (ASC, 3.3 mM of each amino acid), (R,S)-(endo,exo)-2-aminobicyclo(2,2,1)-heptane-2-carboxylic acid (BCH, 10 mM), L-arginine (Arg, 10 mM), L-lysine (Lys, 10 mM), L-histidine (His, 10 mM) and a mixture of Arg/Lys/H is (RKH, 3.3 mM of each amino acid). For control conditions, 10 mM of sucrose was added to maintain consistent osmolality relative to the inhibitor conditions. The pH of each solution of inhibitor in buffer was adjusted as necessary to 7.40 with 3 M aqueous hydrochloric acid prior to use in cell uptake assays. […]

Cl.N[C@@H](Cc1cn(CC[18F])nn1)C(=O)O [(S)-[^18F]4, (S)-2-amino-3-[1-(2-fluoroethyl)-1H-[1,2,3]triazol-4-yl]propanoic acid hydrochloride salt-[^18F]]
inhibition of uptake by ASC condition relative to the sodium control (neutral amino acid inhibitor assay, p<0.001): 89% | inhibition of uptake by L-His, L-Arg and L-Lys (range over the three basic amino acids): 50-69% | inhibition of uptake by L-Arg relative to control (sodium buffer): 50% | inhibition of uptake by L-His relative to control (sodium buffer): 69% | percent uptake relative to control, Na RKH (sodium buffer, Arg/Lys/His 3.3 mM each (FIG. 4/6)): 37±6% | percent uptake relative to control, Na BCH (sodium buffer, BCH 10 mM, 30 sec uptake, neutral amino acid inhibitor assay (FIG. 3/5)): 74±13% | percent uptake relative to control, Na ASC (sodium buffer, 30 sec uptake, neutral amino acid inhibitor assay (FIG. 3/5)): 11±7% | percent uptake relative to control, Na ASC (sodium buffer, basic side chain amino acid inhibitor assay (FIG. 4/6)): 2.4±3.5% | percent uptake relative to control, Na Arg (sodium buffer, L-arginine 10 mM (FIG. 4/6)): 50±9% | percent uptake relative to control, Na His (sodium buffer, L-histidine 10 mM (FIG. 4/6)): 31±5% | percent uptake relative to control, Na Lys (sodium buffer, L-lysine 10 mM (FIG. 4/6)): 46±4% | percent uptake relative to control, Na MeAIB (sodium buffer, MeAIB 10 mM, 30 sec uptake, neutral amino acid inhibitor assay (FIG. 3/5)): 82±7% | inhibition of uptake by BCH versus control in the presence of sodium (sodium control vs sodium BCH): 26% | inhibition of uptake by substituting choline for sodium (sodium control vs. choline control): 42% | reduction of uptake by BCH relative to the choline control (sodium free conditions): approximately 50% | percent uptake relative to control, Cho BCH (sodium-free choline buffer, BCH 10 mM, relative to sodium control (FIG. 3/5)): 30±6% | percent uptake relative to control, Cho sucrose (sodium-free choline buffer, sucrose 10 mM, relative to sodium control (FIG. 3/5)): 58±7% | inhibition of uptake by MeAIB (system A inhibitor MeAIB, sodium buffer): no significant inhibition
